Results as given in ChEMBL document CHEMBL5291721, “A preclinical secondary pharmacology resource illuminates target-adverse drug reaction associations of marketed drugs” (Nat Commun, 2023).

Legend:
[1] = molecular target: T1, Alpha-2A adrenergic receptor (Homo sapiens, UniProt P08913)
T1 sequence (P08913 whole entry): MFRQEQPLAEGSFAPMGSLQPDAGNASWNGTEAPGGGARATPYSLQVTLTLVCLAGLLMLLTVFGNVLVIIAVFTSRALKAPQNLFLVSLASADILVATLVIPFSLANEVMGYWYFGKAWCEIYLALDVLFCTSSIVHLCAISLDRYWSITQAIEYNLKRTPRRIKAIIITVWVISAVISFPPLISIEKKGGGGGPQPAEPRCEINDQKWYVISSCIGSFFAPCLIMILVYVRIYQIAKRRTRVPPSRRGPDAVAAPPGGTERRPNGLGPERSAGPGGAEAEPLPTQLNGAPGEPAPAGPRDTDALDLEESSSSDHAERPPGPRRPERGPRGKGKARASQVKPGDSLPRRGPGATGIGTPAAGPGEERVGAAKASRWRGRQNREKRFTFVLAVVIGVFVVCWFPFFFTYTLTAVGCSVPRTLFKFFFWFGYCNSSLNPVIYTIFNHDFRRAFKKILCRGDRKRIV

D(1A) dopamine receptor = D(1A) dopamine receptor (Homo sapiens, UniProt P21728)
Sequence of D(1A) dopamine receptor (P21728 whole entry): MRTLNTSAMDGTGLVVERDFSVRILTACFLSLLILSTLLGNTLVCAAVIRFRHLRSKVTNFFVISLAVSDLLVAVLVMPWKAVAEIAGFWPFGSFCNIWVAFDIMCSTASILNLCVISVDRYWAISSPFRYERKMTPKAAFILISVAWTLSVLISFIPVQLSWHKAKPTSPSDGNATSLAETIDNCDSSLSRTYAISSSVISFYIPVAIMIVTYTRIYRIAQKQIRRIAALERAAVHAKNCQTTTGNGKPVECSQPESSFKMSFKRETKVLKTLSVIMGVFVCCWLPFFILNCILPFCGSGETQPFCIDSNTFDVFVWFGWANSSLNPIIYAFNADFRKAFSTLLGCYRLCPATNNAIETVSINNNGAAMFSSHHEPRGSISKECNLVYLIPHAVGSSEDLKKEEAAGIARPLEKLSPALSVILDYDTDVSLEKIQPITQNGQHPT

[2] = molecular target: T2, Alpha-1A adrenergic receptor (Homo sapiens, UniProt P35348); assay type: functional, cell-based
T2 sequence (P35348 whole entry): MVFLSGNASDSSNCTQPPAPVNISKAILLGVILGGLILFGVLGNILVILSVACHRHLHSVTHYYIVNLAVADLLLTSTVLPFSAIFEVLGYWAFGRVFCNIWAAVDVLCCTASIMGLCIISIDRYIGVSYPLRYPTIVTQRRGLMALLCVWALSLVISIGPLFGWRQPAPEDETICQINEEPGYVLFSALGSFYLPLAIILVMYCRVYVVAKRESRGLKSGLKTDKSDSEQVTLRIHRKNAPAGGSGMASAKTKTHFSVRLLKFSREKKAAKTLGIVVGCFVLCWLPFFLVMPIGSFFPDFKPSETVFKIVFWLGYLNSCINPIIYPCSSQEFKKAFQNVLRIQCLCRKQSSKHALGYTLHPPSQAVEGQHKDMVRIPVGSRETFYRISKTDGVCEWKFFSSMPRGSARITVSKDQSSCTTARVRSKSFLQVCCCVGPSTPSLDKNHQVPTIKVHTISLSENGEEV

[3] = molecular target: T3, Muscarinic acetylcholine receptor M2 (Homo sapiens, UniProt P08172)
T3 sequence (P08172 whole entry): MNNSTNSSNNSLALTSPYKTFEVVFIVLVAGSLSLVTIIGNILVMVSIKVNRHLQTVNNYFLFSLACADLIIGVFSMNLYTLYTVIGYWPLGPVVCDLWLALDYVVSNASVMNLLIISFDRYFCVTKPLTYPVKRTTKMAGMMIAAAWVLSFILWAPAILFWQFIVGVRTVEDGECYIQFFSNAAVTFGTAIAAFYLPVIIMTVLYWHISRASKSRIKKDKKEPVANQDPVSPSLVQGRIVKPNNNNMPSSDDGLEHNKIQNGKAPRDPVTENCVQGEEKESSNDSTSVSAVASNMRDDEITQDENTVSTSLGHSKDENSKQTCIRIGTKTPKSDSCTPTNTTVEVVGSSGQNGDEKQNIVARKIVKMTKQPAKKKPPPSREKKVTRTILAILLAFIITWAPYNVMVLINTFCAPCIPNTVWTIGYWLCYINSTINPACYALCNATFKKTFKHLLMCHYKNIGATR

[4] = molecular target: T4, 5-hydroxytryptamine receptor 1A (Homo sapiens, UniProt P08908)
T4 sequence (P08908 whole entry): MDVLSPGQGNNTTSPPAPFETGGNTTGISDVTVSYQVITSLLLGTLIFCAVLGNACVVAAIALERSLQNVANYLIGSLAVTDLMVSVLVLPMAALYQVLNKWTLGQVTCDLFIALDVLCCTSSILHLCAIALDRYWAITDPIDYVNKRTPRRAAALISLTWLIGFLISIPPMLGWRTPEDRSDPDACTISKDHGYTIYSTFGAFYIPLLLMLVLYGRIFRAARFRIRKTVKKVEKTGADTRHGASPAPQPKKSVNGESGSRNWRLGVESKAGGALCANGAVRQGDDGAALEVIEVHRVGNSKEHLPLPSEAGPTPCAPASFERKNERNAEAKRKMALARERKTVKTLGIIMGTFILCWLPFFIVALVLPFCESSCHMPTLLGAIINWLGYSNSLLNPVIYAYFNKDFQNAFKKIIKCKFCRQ

[5] = molecular target: Sodium-dependent serotonin transporter (Homo sapiens, UniProt P31645)
Sequence of Sodium-dependent serotonin transporter (P31645 whole entry): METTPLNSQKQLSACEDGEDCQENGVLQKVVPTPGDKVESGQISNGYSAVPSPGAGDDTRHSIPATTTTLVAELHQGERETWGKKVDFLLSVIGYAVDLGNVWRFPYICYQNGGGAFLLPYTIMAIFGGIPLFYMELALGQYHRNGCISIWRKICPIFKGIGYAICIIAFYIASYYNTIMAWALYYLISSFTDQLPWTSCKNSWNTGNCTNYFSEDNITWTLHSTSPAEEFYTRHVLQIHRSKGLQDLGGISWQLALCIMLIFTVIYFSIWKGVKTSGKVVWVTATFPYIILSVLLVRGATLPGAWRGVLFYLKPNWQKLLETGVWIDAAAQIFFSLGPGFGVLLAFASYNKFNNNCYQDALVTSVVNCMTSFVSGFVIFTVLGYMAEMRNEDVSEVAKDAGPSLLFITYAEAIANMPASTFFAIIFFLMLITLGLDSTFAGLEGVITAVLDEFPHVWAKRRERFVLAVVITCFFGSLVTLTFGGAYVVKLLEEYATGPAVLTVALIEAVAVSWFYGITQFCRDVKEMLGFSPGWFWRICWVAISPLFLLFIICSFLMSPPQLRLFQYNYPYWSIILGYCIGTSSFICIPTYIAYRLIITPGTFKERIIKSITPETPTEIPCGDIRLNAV

[6] = molecular target: Sodium-dependent noradrenaline transporter (Homo sapiens, UniProt P23975)
Sequence of Sodium-dependent noradrenaline transporter (P23975 whole entry): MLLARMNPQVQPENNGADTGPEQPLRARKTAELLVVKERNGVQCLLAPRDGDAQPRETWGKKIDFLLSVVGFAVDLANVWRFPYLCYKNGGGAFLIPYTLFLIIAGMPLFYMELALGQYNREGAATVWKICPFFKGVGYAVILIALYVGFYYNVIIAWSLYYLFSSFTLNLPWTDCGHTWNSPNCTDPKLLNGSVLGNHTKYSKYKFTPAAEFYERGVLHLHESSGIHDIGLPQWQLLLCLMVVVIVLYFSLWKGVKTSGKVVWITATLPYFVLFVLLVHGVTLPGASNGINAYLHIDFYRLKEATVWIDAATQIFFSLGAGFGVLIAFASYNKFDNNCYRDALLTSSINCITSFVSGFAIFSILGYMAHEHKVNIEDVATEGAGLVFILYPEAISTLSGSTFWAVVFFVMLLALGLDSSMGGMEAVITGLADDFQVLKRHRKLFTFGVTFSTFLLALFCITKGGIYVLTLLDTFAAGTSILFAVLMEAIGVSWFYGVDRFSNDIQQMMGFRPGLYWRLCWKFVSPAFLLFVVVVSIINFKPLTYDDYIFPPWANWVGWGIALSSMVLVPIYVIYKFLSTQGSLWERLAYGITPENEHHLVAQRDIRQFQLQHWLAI

Progesterone receptor = molecular target: T5, Progesterone receptor (Homo sapiens, UniProt P06401)
T5 sequence (P06401 whole entry): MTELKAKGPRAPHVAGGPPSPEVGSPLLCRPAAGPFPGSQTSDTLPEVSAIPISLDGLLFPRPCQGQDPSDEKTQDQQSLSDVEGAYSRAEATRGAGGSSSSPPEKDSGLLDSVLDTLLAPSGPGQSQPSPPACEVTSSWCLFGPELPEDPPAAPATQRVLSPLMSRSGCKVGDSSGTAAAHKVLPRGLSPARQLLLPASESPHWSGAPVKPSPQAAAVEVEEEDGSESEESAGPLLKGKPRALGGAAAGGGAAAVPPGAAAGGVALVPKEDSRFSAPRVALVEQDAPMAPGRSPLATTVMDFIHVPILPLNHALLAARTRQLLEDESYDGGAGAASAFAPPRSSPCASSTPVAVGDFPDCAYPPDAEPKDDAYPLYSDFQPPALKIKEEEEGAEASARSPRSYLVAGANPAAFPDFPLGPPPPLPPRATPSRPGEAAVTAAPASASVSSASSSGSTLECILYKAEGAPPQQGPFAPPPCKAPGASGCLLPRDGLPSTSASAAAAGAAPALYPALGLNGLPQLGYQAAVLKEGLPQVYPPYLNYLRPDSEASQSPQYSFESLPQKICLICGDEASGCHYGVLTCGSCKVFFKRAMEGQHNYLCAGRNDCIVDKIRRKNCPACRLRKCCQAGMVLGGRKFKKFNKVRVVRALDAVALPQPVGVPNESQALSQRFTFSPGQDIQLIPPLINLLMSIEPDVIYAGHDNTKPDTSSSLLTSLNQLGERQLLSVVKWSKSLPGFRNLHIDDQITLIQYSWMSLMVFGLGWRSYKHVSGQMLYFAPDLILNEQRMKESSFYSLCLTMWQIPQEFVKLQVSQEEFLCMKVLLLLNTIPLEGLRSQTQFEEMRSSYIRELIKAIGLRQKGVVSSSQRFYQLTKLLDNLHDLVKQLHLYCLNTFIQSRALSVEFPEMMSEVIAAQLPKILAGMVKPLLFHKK

Histamine H3 receptor = Histamine H3 receptor (Homo sapiens, UniProt Q9Y5N1)
Sequence of Histamine H3 receptor (Q9Y5N1 whole entry): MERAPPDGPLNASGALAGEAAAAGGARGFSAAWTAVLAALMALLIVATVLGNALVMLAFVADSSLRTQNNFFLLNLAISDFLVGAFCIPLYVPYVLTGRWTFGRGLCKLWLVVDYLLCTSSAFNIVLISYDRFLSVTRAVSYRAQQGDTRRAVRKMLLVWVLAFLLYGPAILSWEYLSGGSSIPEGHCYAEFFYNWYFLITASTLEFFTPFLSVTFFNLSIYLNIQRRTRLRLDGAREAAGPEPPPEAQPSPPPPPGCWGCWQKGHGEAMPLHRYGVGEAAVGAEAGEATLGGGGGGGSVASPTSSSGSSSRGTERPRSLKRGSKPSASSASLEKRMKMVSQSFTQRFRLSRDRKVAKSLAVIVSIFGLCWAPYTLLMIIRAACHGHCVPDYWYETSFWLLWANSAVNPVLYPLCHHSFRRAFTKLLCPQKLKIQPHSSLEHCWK
Also: assay procedure not described here.

| Compound | AC50 [1] [µM] | AC50 (D(1A) dopamine receptor) [µM] | AC50 [2] [µM] | AC50 [3] [µM] | AC50 [4] [µM] | AC50 [5] [µM] | AC50 [6] [µM] | AC50 (Progesterone receptor) [µM] | AC50 (Histamine H3 receptor) [µM] |
| --- | --- | --- | --- | --- | --- | --- | --- | --- | --- |
| O=C(O)c1cccc(-c2noc(-c3ccccc3F)n2)c1 | > 30 | > 30 | > 30 | > 30 | > 30 | > 30 | > 30 | > 30 | > 30 |
| Nc1ccc(C(=O)O)cc1 [AMINOBENZOIC ACID] | > 30 | > 30 | > 30 | > 30 | > 30 | > 30 | > 30 | > 30 | > 30 |
| CCCC1C(=O)N2C(N(C)C)=Nc3ccc(C)cc3N2C1=O (centres undefined) [APAZONE] | > 30 | > 30 | > 30 | > 30 | > 30 | > 30 | > 30 | > 30 | > 30 |
| CCS(=O)(=O)N1CC(CC#N)(n2cc(-c3ncnc4[nH]ccc34)cn2)C1 [BARICITINIB] | > 30 | > 30 | > 30 | > 30 | > 30 | > 30 | > 30 | > 30 | > 30 |
| O=C1CN=C(c2ccccc2)c2c(sc3c2CCCC3)N1 [BENTAZEPAM] | 23.9 | > 30 | > 30 | > 30 | 1.55 | > 30 | > 30 | 14.8 | > 30 |
| O=C(O)CCCN1CCC(O[C@@H](c2ccc(Cl)cc2)c2ccccn2)CC1 [BEPOTASTINE] | > 30 | > 30 | > 30 | > 30 | > 30 | > 30 | > 30 | > 30 | > 30 |
| CCCCN(CCCC)CCCOC(=O)c1ccc(N)cc1 [BUTACAINE] | > 30 | > 30 | > 30 | 16.3 | 2.97 | > 30 | > 30 |  | > 30 |
| CCCC[N+]1(C)[C@@H]2C[C@@H](OC(=O)[C@H](CO)c3ccccc3)C[C@H]1[C@@H]1O[C@@H]12 (some centres undefined) [BUTYLSCOPOLAMINE] | > 30 | > 30 | > 30 |  | > 30 | > 30 | > 30 | > 30 | > 30 |
| NCc1ccccc1CC(=O)N[C@@H]1C(=O)N2C(C(=O)O)=C(CSc3nnnn3CC(=O)O)CS[C@H]12 [CEFORANIDE] | > 30 | > 30 | > 30 | > 30 | > 30 | > 30 | > 30 | > 30 | > 10 |
